Measured values taken from patent US8436185B2, “Pharmaceutically acceptable salts of 2-{4-[(3S)-piperidin-3-yl]phenyl}-2H-indazole-7-carboxamide” (Merck Sharp & Dohme Corp., priority 2008, dated 2013).

Assays:
PARP = conditions: rabbits, cited from earlier work
[1] = for Hygroscopicity (at 25° C.): in words

Compound | reduction in infarct size (PARP; single injection 1 mg/kg) | moisture adsorbed to 95% RH ([1]; 25° C.) | Hygroscopicity (at 25° C.) [1] | moisture to 50% RH ([1]; 25° C., to 50% RH) [%] | reduction in infarct size in the heart (PARP; single injection 10 mg/kg, one minute before occlusion or before reperfusion)
Oc1cccc2c(O)nccc12 [1,5-dihydroxyisoquinoline] | 38-48% |  |  |  | 
Cc1ccc(S(=O)(=O)O)cc1.NC(=O)c1cccc2cn(-c3ccc([C@@H]4CCCNC4)cc3)nc12 [Example 1, (3S)-3-{4-[7-(Aminocarbonyl)-2H-indazol-2-yl]phenyl}piperidinium 4-methylbenzenesulfonate] |  | 0.3% | Non-hygroscopic |  | 
Cl.NC(=O)c1cccc2cn(-c3ccc([C@@H]4CCCNC4)cc3)nc12 [Chloride salt, (3S)-3-[4-[7-(Aminocarbonyl)-2H-indazol-2-yl]phenyl]piperidinium chloride] |  | 60% moisture to 95% RH) | Highly hygroscopic | 10 | 
NC(=O)c1cccc(N)c1 [3-amino-benzamide] |  |  |  |  | 32-42%
